Laboratory results as given in US10785975B2, “Water and feed antimicrobial preservative” (priority 2009, dated 2020).
Where two headings read alike, the source gives them in different places.

Columns and labels:
[1] = general description in background; cited from earlier work
Salmonella typhimurium [2] = assay: Example 3: buffered organic acid mixtures with pelargonic acid in water; format: cell-based; conditions: for MIC at 4 HR / MIC at 24 HR: Minimum Inhibitory Concentration of Pelargonic when mixed with acetic or propionic acid (buffered to pH 3), by linear regression
Protocol: Procedure: Propionic and acetic acids were buffered with ammonium hydroxide to a pH of 3 and combined with pelargonic in the ratios above. Acid content of the buffered solutions was determined by weight to weight ratio calculation (weight of acid/total weight of buffered solution) and adjusted to provide an equal acid value for each treatment. […] The pHs of the deionized water solutions were recorded and any problems with solubility noted.
100 ul of a nutrient broth culture of Salmonella typhimurium was added to each dilution tube. After addition, tubes were vortexed and allowed to stand. At 4 and 24 hours after addition of the inoculum, 100 ul of the solution was plated on Standard Plate agar (triplicate plates). Plates were incubated at 37° C. for 24 hours prior to enumeration. The minimum effective dose of each acid was determined by linear regression.

C. irritans = conditions: cited from earlier work
M. gypseum = conditions: acids tested independently, cited from earlier work
[3] = Protocol: Pelargonic acid is a naturally occurring fatty acid found in almost all species of animals and plants. Because it contains nine carbon atoms, it is also called nonanoic acid has the chemical formula CH3(CH2)7COOH. It is found at low levels in many common foods and is readily broken down in the environment. It is an oily colorless fluid that solidifies at lower temperatures.
In this experiment, the effect of free fatty acids was evaluated. […] The pH of the deionized water solutions was recorded and any problems with solubility noted
(§1) Myristic acid (5%, 10% and 20%) diluted in propionic acid was tested to determine its effectiveness against salmonella in feed.

Salmonella typhimurium [4] = assay: Study 5: propionic, acetic and pelargonic acids alone or in combination in water; format: cell-based
Protocol: Propionic, acetic and pelargonic acids by themselves or in combination as listed were added to sterile deionized water to make at a 0.05%, 0.04%, 0.03%, 0.02% and 0.01% total acid solutions. The pHs of the deionized water solutions were recorded and any problems with solubility noted. 100 ul of a nutrient broth culture of Salmonella typhimurium was added to each dilution tube. After addition, tubes were vortexed and allowed to stand. At 24 hours after addition of the inoculum, 100 ul of the solution was plated on Standard Plate agar (triplicate plates). Plates were incubated at 37° C. for 24 hours prior to enumeration.

Salmonella typhimurium [5] = assay: Example 2: effect of carbon chain length of individual organic acids on antimicrobial activity in water; format: cell-based; set-up: MIC at 4 HR / MIC at 24 FIR: unit not given here; conditions: for MIC at 4 HR / MIC at 24 FIR: Minimum Inhibitory Concentration of Organic Acids against Salmonella, by linear regression; for MIC at 24 FIR: 24 hours; for killing at […] / killing at 0.05 % / killing at 0.075 % / killing at 0.1 %: Salmonella enterica, TYPHIMURIUM
Protocol: 100 ul of a nutrient broth culture of Salmonella typhimurium was added to each dilution tube. After addition, tubes were vortexed and allowed to stand. At 4 and 24 hours after addition of the inoculum, 100 ul of the solution was plated on agar (triplicate plates). Plates were incubated at 37° C. for 24 hours prior to enumeration. The minimum effective dose of each acid was be determined by linear regression: […]

Salmonella typhimurium [6] = assay: Study 8: lauric acid in propionic acid against salmonella in poultry feed; format: cell-based; conditions: Lauric/Propionic acids, 24 hours after treatment
Protocol: Lauric acid (5%, 10%, 20%) diluted with propionic acid was tested to determine its effectiveness against salmonella in feed.
[…] Twenty four hours after treatment, 10 gr of feed was added to 90 ml Butterfield buffer, mixed and then 100 ul of the solution was plated on Standard Plate agar (triplicate plates). Plates were incubated at 37° C. for 24 hours prior to enumeration.

Salmonella typhimurium [7] = assay: Study 7: myristic acid in propionic acid against salmonella in poultry feed; format: cell-based; conditions: Myristic/Propionic acids, 24 hours after treatment
Protocol: as §1
(§2) Commercial poultry feed amended with Salmonella typhimurium was treated with 1 or 3 kg/MT of the solutions listed below. Twenty four hours after treatment, 10 gr of feed was added to 90 ml Butterfield buffer, mixed and then 100 ul of the solution was plated on Standard Plate agar (triplicate plates). Plates were incubated at 37° C. for 24 hours prior to enumeration.

Salmonella typhimurium [8] = assay: Study 6: capric acid in acetic or propionic acid against salmonella in poultry feed; format: cell-based; conditions: Capric/Propionic acids, 24 hours after treatment
Protocol: as §2

[9] = Product Conc. 0.025 (% total acid solution in water)
[10] = Product Conc. 0.05 (% total acid solution in water)
[11] = Product Conc. 0.075 (% total acid solution in water)
[12] = Product Conc. 0.1 (% total acid solution in water)
[13] = Test Product 0.01 % total acid solution in water
[14] = Test Product 0.02 % total acid solution in water
[15] = Test Product 0.04 % total acid solution in water
[16] = Test Product 0.05 % total acid solution in water

For `CCCCCCCCC(=O)O` [Pelargonic acid], the solubility in water [1] is given as “almost insoluble in water”, the “MIC at 4 HR” value (Salmonella typhimurium [2]) is given as less than 0.025 and the “MIC at 24 HR” value (Salmonella typhimurium [2]) is given as less than 0.025. For the same compound, the “Salmonella at time Interval 4 hr % reduction” value (Salmonella typhimurium [2]; [9]) was 100%, the “Salmonella at time Interval 4 hr cfu/g” value (Salmonella typhimurium [2]; [9]) was 0 cfu/g and the “Salmonella at time Interval 24 hr % reduction” value (Salmonella typhimurium [2]; [9]) was 100%. For the same compound, the “Salmonella at time Interval 24 hr cfu/g” value (Salmonella typhimurium [2]; [9]) was 0 cfu/g, the “Salmonella at time Interval 4 hr % reduction” value (Salmonella typhimurium [2]; [10]) was 100% and the “Salmonella at time Interval 4 hr cfu/g” value (Salmonella typhimurium [2]; [10]) was 0 cfu/g. The “Salmonella at time Interval 24 hr % reduction” value (Salmonella typhimurium [2]; [10]) was 100%, the “Salmonella at time Interval 24 hr cfu/g” value (Salmonella typhimurium [2]; [10]) was 0 cfu/g and the “Salmonella at time Interval 4 hr % reduction” value (Salmonella typhimurium [2]; [11]) was 100%. For the same compound, the “Salmonella at time Interval 4 hr cfu/g” value (Salmonella typhimurium [2]; [11]) was 0 cfu/g, the “Salmonella at time Interval 24 hr % reduction” value (Salmonella typhimurium [2]; [11]) was 100% and the “Salmonella at time Interval 24 hr cfu/g” value (Salmonella typhimurium [2]; [11]) was 0 cfu/g. The “Salmonella at time Interval 4 hr % reduction” value (Salmonella typhimurium [2]; [12]) was 100%, the “Salmonella at time Interval 4 hr cfu/g” value (Salmonella typhimurium [2]; [12]) was 0 cfu/g and the “Salmonella at time Interval 24 hr % reduction” value (Salmonella typhimurium [2]; [12]) was 100%. For the same compound, the “Salmonella at time Interval 24 hr cfu/g” value (Salmonella typhimurium [2]; [12]) was 0 cfu/g, the “controlling the growth of the parasite C. irritans” value (C. irritans) was “effective in controlling the growth” and the “minimum inhibitory concentration (MTC) to prevent growth of M. gypseum” value (M. gypseum; in liquid media) was 50 µg/mL. For the same compound, the “minimum inhibitory concentration (MTC) to prevent growth of M. gypseum” value (M. gypseum; on solid media) was 40 µg/mL, the solubility in water [3] was “not soluble in water” and the “Salmonella 24 hr afterTreatment (cfu/g)” value (Salmonella typhimurium [4]; [13]) was 1400 cfu/g. The “Salmonella 24 hr afterTreatment (cfu/g)” value (Salmonella typhimurium [4]; [14]) was 1300 cfu/g, the “Salmonella 24 hr afterTreatment (cfu/g)” value (Salmonella typhimurium [4]; [15]) was 1500 cfu/g and the “Salmonella 24 hr afterTreatment (cfu/g)” value (Salmonella typhimurium [4]; [16]) was 850 cfu/g. The “MIC at 4 HR” value (Salmonella typhimurium [5]; 4 hr) was 0.063 and the “MIC at 24 FIR” value (Salmonella typhimurium [5]) was less than 0.025.
In the case of `CCC(=O)O` [Propionic acid], the “MIC at 4 HR” value (Salmonella typhimurium [2]) is reported as 0.179, the “MIC at 24 HR” value (Salmonella typhimurium [2]) is reported as 0.064 and the “% Reduction” value (Salmonella typhimurium [6]; 1 kg/MT) is reported as 92.3%. For the same compound, the cfu/g (Salmonella typhimurium [6]; 1 kg/MT) was 2567 cfu/g, the “% Reduction” value (Salmonella typhimurium [6]; 3 kg/MT) was 100.0% and the cfu/g (Salmonella typhimurium [6]; 3 kg/MT) was 0 cfu/g. The “Salmonella 24 hr afterTreatment (cfu/g)” value (Salmonella typhimurium [4]; [13]) was 1200 cfu/g, the “Salmonella 24 hr afterTreatment (cfu/g)” value (Salmonella typhimurium [4]; [14]) was 870 cfu/g and the “Salmonella 24 hr afterTreatment (cfu/g)” value (Salmonella typhimurium [4]; Test Product 0.03 % total acid solution in water) was 810 cfu/g. The “Salmonella 24 hr afterTreatment (cfu/g)” value (Salmonella typhimurium [4]; [15]) was 910 cfu/g, the “Salmonella 24 hr afterTreatment (cfu/g)” value (Salmonella typhimurium [4]; [16]) was 560 cfu/g and the “% Reduction” value (Salmonella typhimurium [7]; 1 kg/MT) was 90.08%. For the same compound, the cfu/g (Salmonella typhimurium [7]; 1 kg/MT) was 3967 cfu/g, the “% Reduction” value (Salmonella typhimurium [7]; 3 kg/MT) was 99.42% and the cfu/g (Salmonella typhimurium [7]; 3 kg/MT) was 233 cfu/g. The “% Reduction” value (Salmonella typhimurium [8]; 1 kg/ton) was 0%, the cfu/g (Salmonella typhimurium [8]; 1 kg/ton) was 4633 cfu/g and the “% Reduction” value (Salmonella typhimurium [8]; 3 kg/ton) was 0%. For the same compound, the cfu/g (Salmonella typhimurium [8]; 3 kg/ton) was 5633 cfu/g, the “MIC at 4 HR” value (Salmonella typhimurium [5]; 4 hr) was 0166 and the “MIC at 24 FIR” value (Salmonella typhimurium [5]) was 0.066. For the same compound, the “Salmonella at time Interval 4 hr cfu/g” value (Salmonella typhimurium [5]; Product Conc. 0.025 (% acid solution in water), 4 hr) was 1167 cfu/g, the “Salmonella at time Interval 24 hr cfu/g” value (Salmonella typhimurium [5]; Product Conc. 0.025 (% acid solution in water), 24 hr) was 170 cfu/g and the “Salmonella at time Interval 4 hr cfu/g” value (Salmonella typhimurium [5]; Product Conc. 0.05 (% acid solution in water), 4 hr) was 900 cfu/g. The “Salmonella at time Interval 24 hr cfu/g” value (Salmonella typhimurium [5]; Product Conc. 0.05 (% acid solution in water), 24 hr) was 40 cfu/g, the “Salmonella at time Interval 4 hr cfu/g” value (Salmonella typhimurium [5]; Product Conc. 0.075 (% acid solution in water), 4 hr) was 877 cfu/g and the “Salmonella at time Interval 24 hr cfu/g” value (Salmonella typhimurium [5]; Product Conc. 0.075 (% acid solution in water), 24 hr) was 25 cfu/g. For the same compound, the “Salmonella at time Interval 4 hr cfu/g” value (Salmonella typhimurium [5]; Product Conc. 0.1 (% acid solution in water), 4 hr) was 773 cfu/g, the “Salmonella at time Interval 24 hr cfu/g” value (Salmonella typhimurium [5]; Product Conc. 0.1 (% acid solution in water), 24 hr) was 30 cfu/g and the killing at […] (Salmonella typhimurium [5]; Product Conc. 0.025 (% acid solution in water), 4 hr, read-out: Salmonella at time Interval 4 hr % reduction) was 27%. For the same compound, the killing at […] (Salmonella typhimurium [5]; Product Conc. 0.025 (% acid solution in water), 24 hr, read-out: Salmonella at time Interval 24 hr % reduction) was 90%, the killing at 0.05 % (Salmonella typhimurium [5]; Product Conc. 0.05 (% acid solution in water), 4 hr, read-out: Salmonella at time Interval 4 hr % reduction) was 44% and the killing at 0.05 % (Salmonella typhimurium [5]; Product Conc. 0.05 (% acid solution in water), 24 hr, read-out: Salmonella at time Interval 24 hr % reduction) was 98%. For the same compound, the killing at 0.075 % (Salmonella typhimurium [5]; Product Conc. 0.075 (% acid solution in water), 4 hr, read-out: Salmonella at time Interval 4 hr % reduction) was 45%, the killing at 0.075 % (Salmonella typhimurium [5]; Product Conc. 0.075 (% acid solution in water), 24 hr, read-out: Salmonella at time Interval 24 hr % reduction) was 99% and the killing at 0.1 % (Salmonella typhimurium [5]; Product Conc. 0.1 (% acid solution in water), 4 hr, read-out: Salmonella at time Interval 4 hr % reduction) was 52%. For the same compound, the killing at 0.1 % (Salmonella typhimurium [5]; Product Conc. 0.1 (% acid solution in water), 24 hr, read-out: Salmonella at time Interval 24 hr % reduction) was 98%.
With `CCCCCCCCCCCC(=O)O` [lauric, Lauric acid] the solubility in water [3] was “not soluble in water”.
